According to BigSolDB 2.1:

C#C[C@]1(O)C=C[C@H]2[C@@H]3CCC4=CC(=O)CC[C@@H]4[C@H]3CC[C@@]21CC
solubility (mole fraction) (in 2-butanone, 283.15 K): 0.00956 | solubility (mole fraction) (in 2-butanone, 288.15 K): 0.0114 | solubility (mole fraction) (in 2-butanone, 293.15 K): 0.0134 | solubility (mole fraction) (in 2-butanone, 298.15 K): 0.0159 | solubility (mole fraction) (in 2-butanone, 303.15 K): 0.0188 | solubility (mole fraction) (in 2-butanone, 308.15 K): 0.0221 | solubility (mole fraction) (in 2-butanone, 313.15 K): 0.0258 | solubility (mole fraction) (in 2-butanone, 318.15 K): 0.0302 | solubility (mole fraction) (in 2-butanone, 323.15 K): 0.0352 | solubility (mole fraction) (in acetone, 283.15 K): 0.00379 | solubility (mole fraction) (in acetone, 288.15 K): 0.00499 | solubility (mole fraction) (in acetone, 293.15 K): 0.00654 | solubility (mole fraction) (in acetone, 298.15 K): 0.00862 | solubility (mole fraction) (in acetone, 303.15 K): 0.0113 | solubility (mole fraction) (in acetone, 308.15 K): 0.0147 | solubility (mole fraction) (in acetone, 313.15 K): 0.0189 | solubility (mole fraction) (in acetone, 318.15 K): 0.024 | solubility (mole fraction) (in acetone, 323.15 K): 0.0302 | solubility (mole fraction) (in acetonitrile, 283.15 K): 0.00262 | solubility (mole fraction) (in acetonitrile, 288.15 K): 0.00306 | solubility (mole fraction) (in acetonitrile, 293.15 K): 0.00358 | solubility (mole fraction) (in acetonitrile, 298.15 K): 0.00418 | solubility (mole fraction) (in acetonitrile, 303.15 K): 0.00487 | solubility (mole fraction) (in acetonitrile, 308.15 K): 0.00566 | solubility (mole fraction) (in acetonitrile, 313.15 K): 0.00655 | solubility (mole fraction) (in acetonitrile, 318.15 K): 0.00754 | solubility (mole fraction) (in acetonitrile, 323.15 K): 0.00868 | solubility (mole fraction) (in ethanol, 283.15 K): 0.00314 | solubility (mole fraction) (in ethanol, 288.15 K): 0.00387 | solubility (mole fraction) (in ethanol, 293.15 K): 0.00473 | solubility (mole fraction) (in ethanol, 298.15 K): 0.00577 | solubility (mole fraction) (in ethanol, 303.15 K): 0.00701 | solubility (mole fraction) (in ethanol, 308.15 K): 0.0085 | solubility (mole fraction) (in ethanol, 313.15 K): 0.0102 | solubility (mole fraction) (in ethanol, 318.15 K): 0.0123 | solubility (mole fraction) (in ethanol, 323.15 K): 0.0147 | solubility (mole fraction) (in ethyl acetate, 283.15 K): 0.0146 | solubility (mole fraction) (in ethyl acetate, 288.15 K): 0.0161 | solubility (mole fraction) (in ethyl acetate, 293.15 K): 0.018 | solubility (mole fraction) (in ethyl acetate, 298.15 K): 0.0194 | solubility (mole fraction) (in ethyl acetate, 303.15 K): 0.0211 | solubility (mole fraction) (in ethyl acetate, 308.15 K): 0.0228 | solubility (mole fraction) (in ethyl acetate, 313.15 K): 0.0247 | solubility (mole fraction) (in ethyl acetate, 318.15 K): 0.0264 | solubility (mole fraction) (in ethyl acetate, 323.15 K): 0.0282 | solubility (mole fraction) (in isopropanol, 283.15 K): 0.00155 | solubility (mole fraction) (in isopropanol, 288.15 K): 0.00199 | solubility (mole fraction) (in isopropanol, 293.15 K): 0.0026 | solubility (mole fraction) (in isopropanol, 298.15 K): 0.00328 | solubility (mole fraction) (in isopropanol, 303.15 K): 0.00413 | solubility (mole fraction) (in isopropanol, 308.15 K): 0.00519 | solubility (mole fraction) (in isopropanol, 313.15 K): 0.00648 | solubility (mole fraction) (in isopropanol, 318.15 K): 0.00809 | solubility (mole fraction) (in isopropanol, 323.15 K): 0.0101 | solubility (mole fraction) (in isopropyl acetate, 283.15 K): 0.0174 | solubility (mole fraction) (in isopropyl acetate, 288.15 K): 0.0213 | solubility (mole fraction) (in isopropyl acetate, 293.15 K): 0.0259 | solubility (mole fraction) (in isopropyl acetate, 298.15 K): 0.031 | solubility (mole fraction) (in isopropyl acetate, 303.15 K): 0.0371 | solubility (mole fraction) (in isopropyl acetate, 308.15 K): 0.044 | solubility (mole fraction) (in isopropyl acetate, 313.15 K): 0.052 | solubility (mole fraction) (in isopropyl acetate, 318.15 K): 0.061 | solubility (mole fraction) (in isopropyl acetate, 323.15 K): 0.0711 | solubility (mole fraction) (in methanol, 283.15 K): 0.00457 | solubility (mole fraction) (in methanol, 288.15 K): 0.0055 | solubility (mole fraction) (in methanol, 293.15 K): 0.00655 | solubility (mole fraction) (in methanol, 298.15 K): 0.00777 | solubility (mole fraction) (in methanol, 303.15 K): 0.00917 | solubility (mole fraction) (in methanol, 308.15 K): 0.0108 | solubility (mole fraction) (in methanol, 313.15 K): 0.0125 | solubility (mole fraction) (in methanol, 318.15 K): 0.0145 | solubility (mole fraction) (in methanol, 323.15 K): 0.0168 | solubility (mole fraction) (in n-butanol, 283.15 K): 0.00395 | solubility (mole fraction) (in n-butanol, 288.15 K): 0.00465 | solubility (mole fraction) (in n-butanol, 293.15 K): 0.00549 | solubility (mole fraction) (in n-butanol, 298.15 K): 0.00642 | solubility (mole fraction) (in n-butanol, 303.15 K): 0.0075 | solubility (mole fraction) (in n-butanol, 308.15 K): 0.00875 | solubility (mole fraction) (in n-butanol, 313.15 K): 0.0102 | solubility (mole fraction) (in n-butanol, 318.15 K): 0.0118 | solubility (mole fraction) (in n-butanol, 323.15 K): 0.0136 | solubility (mole fraction) (in n-propanol, 283.15 K): 0.00376 | solubility (mole fraction) (in n-propanol, 288.15 K): 0.00461 | solubility (mole fraction) (in n-propanol, 293.15 K): 0.0056 | solubility (mole fraction) (in n-propanol, 298.15 K): 0.00678 | solubility (mole fraction) (in n-propanol, 303.15 K): 0.00817 | solubility (mole fraction) (in n-propanol, 308.15 K): 0.00979 | solubility (mole fraction) (in n-propanol, 313.15 K): 0.0117 | solubility (mole fraction) (in n-propanol, 318.15 K): 0.014 | solubility (mole fraction) (in n-propanol, 323.15 K): 0.0166 | solubility (mole fraction) (in water, 283.15 K): 6.83e-06 | solubility (mole fraction) (in water, 288.15 K): 7.69e-06 | solubility (mole fraction) (in water, 293.15 K): 8.93e-06 | solubility (mole fraction) (in water, 298.15 K): 1.06e-05 | solubility (mole fraction) (in water, 303.15 K): 1.23e-05 | solubility (mole fraction) (in water, 308.15 K): 1.42e-05 | solubility (mole fraction) (in water, 313.15 K): 1.62e-05 | solubility (mole fraction) (in water, 318.15 K): 1.87e-05 | solubility (mole fraction) (in water, 323.15 K): 2.16e-05
